Reference: patent publication US20080139536A1, “Benzodiazepines for Treating or Preventing Rsv Infection” (Novartis Pharmaceuticals Corporation, priority 2004, published 2008)

System: RSV (RSS strain)
Assay: RSV ELISA antigen reduction assay in Hep-2 cells
Type: cell-based, Respiratory Syncytial Virus
Conditions: RSV-infected Hep-2 cells, 3 day assay, ELISA OD 490 nm, 7-point dilution 50 μM-0.78 μM
Experimental: This was quantified by optical density (OD) measurement.
This assay was set up using all 96 wells of flat-bottomed 96-well plates. The outer wells were not subjected to any greater amount of evaporation than the inner wells during the 3 day assay period. (i.e. No “edge effect” seen).
Plates were set up one day before addition of virus and compounds. The assay then ran for 3 days with ELISA development taking place on the 4th day.
All 96 wells of a microtitre plate were seeded at a density of 4×10^3 Hep-2 cells/well in 100 μl/well of Growth Medium (GM) consisting of Dulbecco's MEM (DMEM) with Glutamax-1, Sodium Pyruvate, 1000 mg/l glucose and pyridoxine (Invitrogen, catalogue number 21885-025) and supplemented with 10% FBS. (See Plate 1).
A frozen vial of RSV (RSS strain provided by Virogen Ltd) stock solution was removed from the −80 freezer or liquid nitrogen store and diluted to a known Multiplicity of Infection (m.o.i) in Growth Medium.
The m.o.i. was calculated by prior titration of the virus stock (by the ELISA assay method) as the virus input required to achieve a window of at least 0.8 OD units between infected and uninfected control wells.
50 μl of diluted virus was added to infected, “virus+”, wells by multichannel pipette; 50 μl of Growth Medium was added to uninfected, cell control wells (CC) by multichannel pipette. (See Plate 2)
Plates were incubated at 37° C. for 1 hr to allow virus adsorption.
Compounds were made up at 4× strength in GM containing 2% DMSO (a final DMSO concentration in the assay of 0.5%).
Six compounds were tested on each assay plate as illustrated below. (See Plate 3). Compounds were tested in duplicate wells across a 7-point dilution series (from 50 μM-0.78 μM): in the presence of virus.
Virus infected, untreated wells served as the virus control (VC); Uninfected, untreated wells serve as the cell control (CC). The difference in absorbance between CC and VC wells constitutes the assay window.
200 μl of GM containing 2% DMSO was added to all wells except the ‘50 μM’ or first column, to which 392 μl of GM was added. 8 μl of each test compound was cherry-picked from a thawed Arrow screening plate and transferred to the appropriate well in the ‘50 μM’ column. Since the compound stock was at 10 mM in 100% DMSO, this will maintain the DMSO level at 2% at the top compound concentration.
Using a multichannel pipette, 200 μl was transferred from the 50 μM column to the 25 μM column, then to the 12.5 μM column and so on across the dilution plate creating a serial doubling dilution. Compounds were mixed upon transfer and tips changed between transfers, ensuring also that no compound was transferred to the last column of compound-free wells (0 μM).
The dilution plate was turned lengthways and 50 μl of compound easily transferred by multichannel pipette from the dilution plate to the assay plate, column by column. There was therefore an excess of 100 μl remaining in the dilution plate.
Plates were incubated at 37° C., 5% CO2 for 3 days.
Media was tapped out from wells directly into Virkon (1% solution in water) and plates were washed by immersing in a plastic box containing PBS. 50 μl/well of 75%/25% vol/vol acetone/methanol fixative was added by multichannel pipette and left for 3 mins.
Some 200 μl of blocking solution (2% Marvel in PBS containing 0.05% Tween) was added per well by multichannel pipette. Plates were incubated at 37° C. in a shaking incubator for 60 mins.
RSV mouse monoclonal antibody NCL-RSV3 (Novocastra) was diluted 1/400 in PBS/2% Marvel/0.05% Tween and 50 μl was added per well. Plates were incubated at 37° C. in a shaking incubator for 90 mins.
DAKo rabbit anti-mouse HRP conjugate (DAKO catalogue number P0260) was diluted 1/1000 in PBS/2% Marvel/0.05% Tween and 50 μl was added per well. Plates were incubated at 37° C. in a shaking incubator for 60 mins.
Substrate (SigmaFast OPD) was prepared in advance by dissolving 1 urea tablet in 20 mL water. […]

[1] = human respiratory syncytial virus, 72 h

Compound | IC50 [1] [µM] | IC50 [µM]
O=C(N[C@H]1N=C(c2ccccc2)c2ccccc2NC1=O)c1cc(C(F)(F)F)ccc1N1CCOCC1 [Example 20, (S)-2-Morpholin-4-yl-N-(2-oxo-5-phenyl-2,3-dihydro-1H-benzo[e][1,4]diazepin-3-yl)-5-trifluoromethyl-benzamide] | > 10 | –
O=C(N[C@H]1N=C(c2ccccc2)c2ccccc2NC1=O)c1ccc(N2CCOCC2)cc1Cl [Example 4, (S)-2-Chloro-4-morpholin-4-yl-N-(2-oxo-5-phenyl-2,3-dihydro-1H-benzo[e][1,4]diazepin-3-yl)-benzamide] | < 5 | –
O=C(N[C@H]1N=C(c2ccccc2)c2ccccc2NC1=O)c1cccc(S(=O)(=O)N2CCCCC2)c1 [Example 30, (S)—N-(2-Oxo-5-phenyl-2,3-dihydro-1H-benzo[e][1,4]diazepin-3-yl)-3-(piperidine-1-sulfonyl)-benzamide] | 5 to 10 | –
O=C(N[C@H]1N=C(c2ccccc2)c2ccccc2NC1=O)c1csc(-c2cccnc2)n1 [Example 38, (S)-2-Pyridin-3-yl-thiazole-4-carboxylic acid (2-oxo-5-phenyl-2,3-dihydro-1H-benzo[e][1,4]diazepin-3-yl)-amide] | < 5 | –
CN1CCN(c2ccc(C(=O)NC3N=C(c4ccccc4)c4ccccc4NC3=O)cn2)CC1 (racemic) [Example 1, 6-(4-Methyl-piperazin-1-yl)-N-(2-oxo-5-phenyl-2,3-dihydro-1H-benzo[e][1,4]diazepin-3-yl)-nicotinamide] | 5 to 10 | –
O=C1Nc2ccccc2C(c2ccccc2)=N[C@@H]1NC(=O)n1c(=O)n(C2CC2)c2ncccc21 [Example 27, (S)-3-Cyclopropyl-2-oxo-2,3-dihydro-imidazo[4,5-b]pyridine-1-carboxylic acid (2-oxo-5-phenyl-2,3-dihydro-1H-benzo[e][1,4]diazepin-3-yl)-amide] | > 10 | –
O=C(N[C@H]1N=C(c2ccccc2)c2ccccc2NC1=O)c1ccc(F)cc1N1CCOCC1 [Example 13, (S)-4-Fluoro-2-morpholino-4-yl-N-(2-oxo-5-phenyl-2,3-dihydro-1H-benzo[e][1,4]diazepin-3-yl)-benzamide] | – | 5 to 10
O=C(N[C@H]1N=C(c2ccccc2)c2ccccc2NC1=O)c1cc(N2CCS(=O)(=O)CC2)ccc1Cl [Example 36, (S)-2-Chloro-5-(1,1-dioxo-1λ6-thiomorpholin-4-yl)-N-(2-oxo-5-phenyl-2,3-dihydro-1H-benzo[e][1,4]diazepin-3-yl)-benzamide] | < 5 | –
O=C(N[C@H]1N=C(c2ccccc2)c2ccccc2NC1=O)c1csc(-c2ccncc2)n1 [Example 39, (S)-2-Pyridin-4-yl-thiazole-4-carboxylic acid (2-oxo-5-phenyl-2,3-dihydro-1H-benzo[e][1,4]diazepin-3-yl)-amide] | < 5 | –
O=C(N[C@H]1N=C(c2ccccc2)c2ccccc2NC1=O)c1ccc(F)cc1N1CCCCC1 [Example 12, (S)-4-Fluoro-N-(2-oxo-5-phenyl-2,3-dihydro-1H-benzo[e][1,4]diazepin-3-yl)-2-piperidin-1-yl-benzamide] | 5 to 10 | –
O=C(N[C@H]1N=C(c2ccccc2)c2ccccc2NC1=O)c1ccc(CN2CCOCC2)o1 [Example 32, (S)-5-Morpholin-4-ylmethyl-furan-2-carboxylic acid (2-oxo-5-phenyl-2,3-dihydro-1H-benzo[e][1,4]diazepin-3-yl)-amide] | < 5 | –
O=C(N[C@H]1N=C(c2ccccc2)c2ccccc2NC1=O)c1ccc(C(F)(F)F)cc1N1CCCC1 [Example 16, (S)—N-(2-Oxo-5-phenyl-2,3-dihydro-1H-benzo[e][1,4]diazepin-3-yl)-2-pyrrolidin-1-yl-4-trifluoromethyl-benzamide] | 5 to 10 | –
Cc1nc(-c2cnccn2)sc1C(=O)N[C@H]1N=C(c2ccccc2)c2ccccc2NC1=O [Example 40, (S)-4-Methyl-2-pyrazin-2-yl-thiazole-5-carboxylic acid (2-oxo-5-phenyl-2,3-dihydro-1H-benzo[e][1,4]diazepin-3-yl)-amide] | 5 to 10 | –
O=C(N[C@H]1N=C(c2ccccc2)c2ccccc2NC1=O)c1c(Cl)cccc1N1CCS(=O)(=O)CC1 [Example 26, (S)-2-Chloro-6-(1,1-dioxo-1,6-thiomorpholin-4-yl)-N-(2-oxo-5-phenyl-2,3-dihydro-1H-benzo[e][1,4]diazepin-3-yl)-benzamide] | – | < 5
O=C(N[C@H]1N=C(c2ccccc2)c2ccccc2NC1=O)c1ncoc1-c1ccccc1 [Example 51, (S)-5-Phenyl-oxazole-4-carboxylic acid (2-oxo-5-phenyl-2,3-dihydro-1H-benzo[e][1,4]diazepin-3-yl)-amide] | < 5 | –
O=C(NC1N=C(c2ccccc2)c2ccccc2NC1=O)c1ccccc1N1CCOCC1 (racemic) [Example 50, 2-Morpholin-4-yl-N-(2-oxo-5-phenyl-2,3-dihydro-1H-benzo[e][1,4]diazepin-3-yl)-benzamide] | < 5 | –
Cc1cccc(C(=O)N[C@H]2N=C(c3ccccc3)c3ccccc3NC2=O)c1N1CCS(=O)(=O)CC1 [Example 23, (S)-2-(1,1-Dioxo-1λ6-thiomorpholin-4-yl)-3-methyl-N-(2-oxo-5-phenyl-2,3-dihydro-1H-benzo[e][1,4]diazepin-3-yl)-benzamide] | < 5 | –
CN1CCN(c2ccc(C(=O)N[C@H]3N=C(c4ccccc4)c4ccccc4NC3=O)cc2)CC1 [Example 29, (S)-4-(4-Methyl-piperazin-1-yl)-N-(2-oxo-5-phenyl-2,3-dihydro-1H-benzo[e][1,4]diazepin-3-yl)-benzamide] | < 5 | –
CN1CCN(Cc2ccc(C(=O)N[C@H]3N=C(c4ccccc4)c4ccccc4NC3=O)o2)CC1 [Example 8, (S)-5-(4-Methyl-piperazin-1-ylmethyl)-furan-2-carboxylic acid (2-oxo-5-phenyl-2,3-dihydro-1H-benzo[e][1,4]diazepin-3-yl)-amide] | < 5 | –
(S)-5-Pyrrolidin-1-ylmethyl-furan-2-carboxylic acid (2-oxo-5-phenyl-2,3-dihydro-1H-benzo[e][1,4]diazepin-3-yl)-amide [Example 9] | – | 5 to 10
Cc1ccc(C(=O)N[C@H]2N=C(c3ccccc3)c3ccccc3NC2=O)c(N2CCS(=O)(=O)CC2)c1 [Example 24, (S)-2-(1,1-Dioxo-1λ6-thiomorpholin-4-yl)-4-methyl-N-(2-oxo-5-phenyl-2,3-dihydro-1H-benzo[e][1,4]diazepin-3-yl)-benzamide] | < 5 | –
O=C(N[C@H]1N=C(c2ccccc2)c2ccccc2NC1=O)c1ccc(N2CCS(=O)(=O)CC2)cc1Cl [Example 35, (S)-2-Chloro-4-(1,1-dioxo-1λ6-thiomorpholin-4-yl)-N-(2-oxo-5-phenyl-2,3-dihydro-1H-benzo[e][1,4]diazepin-3-yl)-benzamide] | < 5 | –
O=C(N[C@H]1N=C(c2ccccc2)c2ccccc2NC1=O)c1ccc(-c2ccccn2)s1 [Example 45, (S)-5-Pyridin-2-yl-thiophene-2-carboxylic acid (2-oxo-5-phenyl-2,3-dihydro-1H-benzo[e][1,4]diazepin-3-yl)-amide] | < 5 | –
Cc1occ(S(=O)(=O)N2CCOCC2)c1C(=O)N[C@H]1N=C(c2ccccc2)c2ccccc2NC1=O [Example 46, (S)-2-Methyl-4-(morpholin-4-sulfonyl)-furan-3-carboxylic acid (2-oxo-5-phenyl-2,3-dihydro-1H-benzo[e][1,4]diazepin-3-yl)-amide] | 5 to 10 | –
